Our source for the Activity values is ChEMBL document CHEMBL1149912, “Chemical fragments as foundations for understanding target space and activity prediction” (J Med Chem, 2008).

One experiment deals with T1, Renin (Homo sapiens) (UniProt P00797).
T1 sequence (whole entry): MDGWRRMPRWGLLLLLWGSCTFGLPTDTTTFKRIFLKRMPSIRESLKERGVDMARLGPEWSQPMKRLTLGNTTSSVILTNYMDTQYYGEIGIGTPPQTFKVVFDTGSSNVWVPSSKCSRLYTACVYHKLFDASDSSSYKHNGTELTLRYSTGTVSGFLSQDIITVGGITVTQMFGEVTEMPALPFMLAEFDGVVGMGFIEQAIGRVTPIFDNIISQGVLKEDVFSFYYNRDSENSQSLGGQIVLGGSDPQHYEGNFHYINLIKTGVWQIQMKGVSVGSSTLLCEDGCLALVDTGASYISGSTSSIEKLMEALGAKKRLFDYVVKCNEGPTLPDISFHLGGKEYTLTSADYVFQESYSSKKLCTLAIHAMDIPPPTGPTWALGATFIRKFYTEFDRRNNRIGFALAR
Put plainly: Inhibition of REN.

Experiment [1] concerns the target Neprilysin (Homo sapiens) (UniProt P08473). Put plainly: Inhibition of MME.
Experiment [2] has as its target Leukotriene B4 receptor 1 (Homo sapiens) (UniProt Q15722). Put plainly: Inhibition of LTB4R.
Experiment [3] deals with T2, Cholecystokinin receptor type A (Homo sapiens) (UniProt P32238).
T2 sequence (whole entry): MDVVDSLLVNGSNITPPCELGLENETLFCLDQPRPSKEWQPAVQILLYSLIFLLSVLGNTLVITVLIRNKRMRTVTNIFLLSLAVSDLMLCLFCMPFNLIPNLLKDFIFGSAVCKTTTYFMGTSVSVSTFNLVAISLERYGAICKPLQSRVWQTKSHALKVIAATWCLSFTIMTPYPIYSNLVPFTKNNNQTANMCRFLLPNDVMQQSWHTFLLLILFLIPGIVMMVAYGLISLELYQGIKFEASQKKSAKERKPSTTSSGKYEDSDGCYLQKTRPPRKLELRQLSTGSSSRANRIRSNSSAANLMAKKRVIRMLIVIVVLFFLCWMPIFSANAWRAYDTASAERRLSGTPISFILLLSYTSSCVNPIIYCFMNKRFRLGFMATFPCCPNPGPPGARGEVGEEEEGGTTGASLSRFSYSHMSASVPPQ
Put plainly: Inhibition of CCKAR.

In experiment [4] the target is T3, Glucocorticoid receptor (Homo sapiens) (UniProt P04150).
T3 sequence (whole entry): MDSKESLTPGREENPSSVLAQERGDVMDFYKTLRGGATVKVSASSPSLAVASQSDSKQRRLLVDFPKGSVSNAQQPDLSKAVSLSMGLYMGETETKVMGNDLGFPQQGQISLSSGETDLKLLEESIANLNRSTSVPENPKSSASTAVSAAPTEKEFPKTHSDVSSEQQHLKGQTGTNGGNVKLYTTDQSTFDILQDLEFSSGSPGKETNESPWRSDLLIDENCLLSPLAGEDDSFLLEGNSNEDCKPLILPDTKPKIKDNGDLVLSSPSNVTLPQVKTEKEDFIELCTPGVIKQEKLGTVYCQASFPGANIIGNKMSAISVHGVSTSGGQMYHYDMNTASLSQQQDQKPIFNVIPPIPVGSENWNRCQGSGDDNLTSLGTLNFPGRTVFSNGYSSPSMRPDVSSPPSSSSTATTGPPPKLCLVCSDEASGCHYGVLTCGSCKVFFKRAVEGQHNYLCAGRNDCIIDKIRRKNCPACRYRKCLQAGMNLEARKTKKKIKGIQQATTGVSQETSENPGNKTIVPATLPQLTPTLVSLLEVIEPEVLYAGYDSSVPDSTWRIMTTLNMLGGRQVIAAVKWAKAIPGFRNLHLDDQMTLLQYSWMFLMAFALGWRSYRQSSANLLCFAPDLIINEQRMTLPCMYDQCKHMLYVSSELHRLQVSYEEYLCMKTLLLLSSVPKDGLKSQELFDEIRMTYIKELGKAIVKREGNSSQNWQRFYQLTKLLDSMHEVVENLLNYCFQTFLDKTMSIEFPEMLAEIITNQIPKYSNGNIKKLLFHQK
Put plainly: Inhibition of NR3C1.

Experiment [5] addresses Metabotropic glutamate receptor 2 (Homo sapiens) (UniProt Q14416). Put plainly: Inhibition of GRM2.
Experiment [6] has as its target Mitogen-activated protein kinase 14 (Homo sapiens) (UniProt Q16539). Put plainly: Inhibition of MAPK14.
The target of experiment [7] is Muscarinic acetylcholine receptor M3 (Homo sapiens) (UniProt P20309). Put plainly: Inhibition of CHRM3.
For experiment [8], the target named is Prothrombin (Homo sapiens) (UniProt P00734). Put plainly: Inhibition of thrombin.
For experiment [9], the target named is Stromelysin-1 (Homo sapiens) (UniProt P08254). Put plainly: Inhibition of MMP3.
Experiment [10] relates to NMDA receptor subunit 1, GRIN1. Put plainly: Inhibition of GRIN1.
Experiment [11] has as its target T4, Prostaglandin D2 receptor 2 (Homo sapiens) (UniProt Q9Y5Y4).
T4 sequence (whole entry): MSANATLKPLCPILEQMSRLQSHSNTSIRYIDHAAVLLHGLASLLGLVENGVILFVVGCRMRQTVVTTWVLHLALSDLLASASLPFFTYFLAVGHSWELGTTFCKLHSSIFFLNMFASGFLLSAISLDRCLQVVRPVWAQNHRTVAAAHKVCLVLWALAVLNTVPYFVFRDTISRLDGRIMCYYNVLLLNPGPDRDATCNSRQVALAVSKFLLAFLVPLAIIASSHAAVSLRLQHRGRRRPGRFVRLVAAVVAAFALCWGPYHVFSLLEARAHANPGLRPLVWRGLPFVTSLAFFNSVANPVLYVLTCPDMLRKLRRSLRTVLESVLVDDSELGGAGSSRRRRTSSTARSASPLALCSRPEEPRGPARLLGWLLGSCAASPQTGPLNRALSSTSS
Put plainly: Inhibition of GPR44.

Experiment [12] addresses Voltage-dependent N-type calcium channel subunit alpha-1B (Homo sapiens) (UniProt Q00975). Put plainly: Inhibition of CACNA1B.
Experiment [13] concerns the target Cathepsin B (Homo sapiens) (UniProt P07858). Put plainly: Inhibition of CTSB.
The target of experiment [14] is Sodium-dependent dopamine transporter (Homo sapiens) (UniProt Q01959). Put plainly: Inhibition of SLC6A3.
Experiment [15] deals with Aldo-keto reductase family 1 member B1 (Homo sapiens) (UniProt P15121). Put plainly: Inhibition of AKR1B1.
The target of experiment [16] is Kappa-type opioid receptor (Homo sapiens) (UniProt P41145). Put plainly: Inhibition of OPRK1.
Sequence of Kappa-type opioid receptor (Homo sapiens) (P41145 whole entry): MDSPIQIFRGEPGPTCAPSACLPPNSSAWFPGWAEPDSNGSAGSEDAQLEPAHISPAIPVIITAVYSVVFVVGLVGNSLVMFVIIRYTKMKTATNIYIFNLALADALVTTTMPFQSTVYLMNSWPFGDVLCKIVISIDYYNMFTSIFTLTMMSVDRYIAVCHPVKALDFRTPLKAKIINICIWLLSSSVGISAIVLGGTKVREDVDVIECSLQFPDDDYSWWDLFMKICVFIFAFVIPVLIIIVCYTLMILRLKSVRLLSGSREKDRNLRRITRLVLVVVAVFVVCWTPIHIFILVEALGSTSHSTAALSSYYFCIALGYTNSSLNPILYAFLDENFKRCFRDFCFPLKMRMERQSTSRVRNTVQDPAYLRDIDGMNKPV

Sequence of Leukotriene B4 receptor 1 (Homo sapiens) (Q15722 whole entry): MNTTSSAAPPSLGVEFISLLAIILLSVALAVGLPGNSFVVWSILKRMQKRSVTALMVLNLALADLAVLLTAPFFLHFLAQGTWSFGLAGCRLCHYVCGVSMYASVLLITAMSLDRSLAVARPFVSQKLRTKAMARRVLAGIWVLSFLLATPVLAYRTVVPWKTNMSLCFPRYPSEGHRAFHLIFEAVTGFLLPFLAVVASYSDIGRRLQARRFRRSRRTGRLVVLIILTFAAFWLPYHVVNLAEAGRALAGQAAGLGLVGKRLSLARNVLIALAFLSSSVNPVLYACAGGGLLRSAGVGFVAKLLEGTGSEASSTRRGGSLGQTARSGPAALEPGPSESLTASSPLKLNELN
Sequence of Stromelysin-1 (Homo sapiens) (P08254 100-477 limits assumed): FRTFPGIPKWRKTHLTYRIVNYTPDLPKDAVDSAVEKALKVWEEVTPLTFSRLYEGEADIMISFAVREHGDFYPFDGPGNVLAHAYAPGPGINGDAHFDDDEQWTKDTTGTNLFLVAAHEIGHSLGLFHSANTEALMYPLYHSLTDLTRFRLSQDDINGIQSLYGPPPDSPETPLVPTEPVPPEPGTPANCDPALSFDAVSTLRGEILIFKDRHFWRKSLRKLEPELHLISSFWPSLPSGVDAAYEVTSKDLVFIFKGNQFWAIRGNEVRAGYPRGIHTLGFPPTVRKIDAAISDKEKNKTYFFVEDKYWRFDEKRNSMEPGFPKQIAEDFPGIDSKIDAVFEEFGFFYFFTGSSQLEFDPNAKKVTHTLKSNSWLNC
Sequence of Neprilysin (Homo sapiens) (P08473 whole entry): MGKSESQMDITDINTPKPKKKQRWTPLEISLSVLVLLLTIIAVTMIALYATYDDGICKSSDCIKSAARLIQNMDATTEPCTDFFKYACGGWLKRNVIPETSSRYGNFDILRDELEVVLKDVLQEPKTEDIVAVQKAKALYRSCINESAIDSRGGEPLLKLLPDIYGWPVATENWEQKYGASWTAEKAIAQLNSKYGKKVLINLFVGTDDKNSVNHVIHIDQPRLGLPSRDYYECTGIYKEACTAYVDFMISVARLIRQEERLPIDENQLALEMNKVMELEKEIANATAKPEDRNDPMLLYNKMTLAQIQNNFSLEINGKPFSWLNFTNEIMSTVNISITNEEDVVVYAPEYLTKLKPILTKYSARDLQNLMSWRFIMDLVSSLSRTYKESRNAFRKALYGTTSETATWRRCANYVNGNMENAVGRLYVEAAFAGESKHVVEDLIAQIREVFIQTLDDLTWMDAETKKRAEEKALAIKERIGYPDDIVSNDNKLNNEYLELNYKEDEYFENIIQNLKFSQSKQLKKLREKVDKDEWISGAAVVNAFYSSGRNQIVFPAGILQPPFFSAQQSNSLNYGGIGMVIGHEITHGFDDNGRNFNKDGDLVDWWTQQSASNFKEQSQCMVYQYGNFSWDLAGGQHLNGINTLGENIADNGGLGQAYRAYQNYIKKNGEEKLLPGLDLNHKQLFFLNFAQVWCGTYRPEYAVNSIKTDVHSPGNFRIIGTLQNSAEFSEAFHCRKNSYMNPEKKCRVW
Sequence of Voltage-dependent N-type calcium channel subunit alpha-1B (Homo sapiens) (Q00975 whole entry, looked up): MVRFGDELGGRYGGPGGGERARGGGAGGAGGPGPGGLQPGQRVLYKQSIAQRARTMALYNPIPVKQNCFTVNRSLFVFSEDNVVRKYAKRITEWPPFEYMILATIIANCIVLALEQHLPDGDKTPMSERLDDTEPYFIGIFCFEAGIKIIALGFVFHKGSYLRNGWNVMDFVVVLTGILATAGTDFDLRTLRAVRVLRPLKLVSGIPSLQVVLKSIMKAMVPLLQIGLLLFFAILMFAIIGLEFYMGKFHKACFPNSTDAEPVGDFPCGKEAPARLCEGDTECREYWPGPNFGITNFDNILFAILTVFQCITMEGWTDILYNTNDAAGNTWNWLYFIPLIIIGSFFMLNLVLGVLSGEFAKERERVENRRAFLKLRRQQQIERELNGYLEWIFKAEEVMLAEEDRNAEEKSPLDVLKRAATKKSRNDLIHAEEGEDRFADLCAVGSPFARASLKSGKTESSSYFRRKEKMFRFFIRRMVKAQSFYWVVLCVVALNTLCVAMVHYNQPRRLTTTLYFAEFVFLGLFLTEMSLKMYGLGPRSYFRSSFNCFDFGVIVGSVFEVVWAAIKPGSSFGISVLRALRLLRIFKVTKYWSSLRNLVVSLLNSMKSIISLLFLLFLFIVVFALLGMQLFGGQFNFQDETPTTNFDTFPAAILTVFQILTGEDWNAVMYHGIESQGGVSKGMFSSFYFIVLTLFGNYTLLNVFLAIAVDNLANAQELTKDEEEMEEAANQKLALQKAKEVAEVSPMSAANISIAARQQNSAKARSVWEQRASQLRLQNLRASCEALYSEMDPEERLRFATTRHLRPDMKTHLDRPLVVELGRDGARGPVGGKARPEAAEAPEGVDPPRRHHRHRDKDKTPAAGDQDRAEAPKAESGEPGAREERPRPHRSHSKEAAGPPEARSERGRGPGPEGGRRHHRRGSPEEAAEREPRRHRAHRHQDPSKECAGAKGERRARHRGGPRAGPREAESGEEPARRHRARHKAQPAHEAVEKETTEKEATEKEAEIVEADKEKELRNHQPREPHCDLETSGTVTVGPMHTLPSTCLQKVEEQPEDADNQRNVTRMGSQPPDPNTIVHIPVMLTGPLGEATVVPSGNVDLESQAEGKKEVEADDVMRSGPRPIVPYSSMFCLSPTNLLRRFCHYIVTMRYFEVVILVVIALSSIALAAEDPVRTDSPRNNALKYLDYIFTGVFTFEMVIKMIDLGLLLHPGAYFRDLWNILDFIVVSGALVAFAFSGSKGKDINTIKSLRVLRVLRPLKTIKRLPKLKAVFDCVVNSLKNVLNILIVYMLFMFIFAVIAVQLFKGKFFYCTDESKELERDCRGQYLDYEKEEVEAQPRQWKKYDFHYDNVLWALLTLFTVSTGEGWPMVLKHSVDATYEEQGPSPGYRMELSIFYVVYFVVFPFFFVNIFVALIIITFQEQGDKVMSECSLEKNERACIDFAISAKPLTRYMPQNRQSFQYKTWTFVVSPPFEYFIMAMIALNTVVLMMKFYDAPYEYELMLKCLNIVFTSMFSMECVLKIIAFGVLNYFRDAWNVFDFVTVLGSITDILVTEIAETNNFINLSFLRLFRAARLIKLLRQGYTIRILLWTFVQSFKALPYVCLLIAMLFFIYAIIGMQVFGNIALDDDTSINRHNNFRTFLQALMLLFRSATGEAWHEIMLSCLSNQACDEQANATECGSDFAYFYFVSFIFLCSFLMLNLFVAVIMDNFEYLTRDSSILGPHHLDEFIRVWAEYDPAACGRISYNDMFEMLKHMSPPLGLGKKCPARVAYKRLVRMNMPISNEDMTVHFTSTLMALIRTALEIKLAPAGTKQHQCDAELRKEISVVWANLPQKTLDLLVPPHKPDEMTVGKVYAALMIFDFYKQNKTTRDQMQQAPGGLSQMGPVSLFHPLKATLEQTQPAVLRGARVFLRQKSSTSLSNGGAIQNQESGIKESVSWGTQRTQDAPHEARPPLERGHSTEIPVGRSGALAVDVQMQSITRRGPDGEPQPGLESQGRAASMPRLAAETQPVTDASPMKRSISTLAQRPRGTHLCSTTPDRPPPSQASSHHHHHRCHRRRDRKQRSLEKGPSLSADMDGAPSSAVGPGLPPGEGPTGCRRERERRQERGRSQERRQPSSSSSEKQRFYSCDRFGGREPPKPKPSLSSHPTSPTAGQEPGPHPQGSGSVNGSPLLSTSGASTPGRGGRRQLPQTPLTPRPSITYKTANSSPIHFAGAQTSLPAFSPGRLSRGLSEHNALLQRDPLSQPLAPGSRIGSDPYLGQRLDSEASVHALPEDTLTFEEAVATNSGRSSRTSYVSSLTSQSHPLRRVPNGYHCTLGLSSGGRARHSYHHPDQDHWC
Sequence of Mitogen-activated protein kinase 14 (Homo sapiens) (Q16539 whole entry): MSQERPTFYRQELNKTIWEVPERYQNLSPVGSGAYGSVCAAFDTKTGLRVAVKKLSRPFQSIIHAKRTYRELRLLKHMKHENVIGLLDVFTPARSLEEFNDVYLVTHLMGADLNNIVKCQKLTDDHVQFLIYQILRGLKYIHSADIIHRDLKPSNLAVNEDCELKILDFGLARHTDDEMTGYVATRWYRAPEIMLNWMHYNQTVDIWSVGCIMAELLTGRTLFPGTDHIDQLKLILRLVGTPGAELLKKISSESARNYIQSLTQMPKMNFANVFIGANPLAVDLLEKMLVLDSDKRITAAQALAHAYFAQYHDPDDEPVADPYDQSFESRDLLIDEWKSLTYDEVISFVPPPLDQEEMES

As to `CC(C)C[C@H](NC(=O)[C@@H](C)NC(=O)[C@@H](Cc1ccccc1)NC(=O)OC(C)(C)C)C(O)CSC(C)C` (single isomer, unassigned), the Activity on Renin (Homo sapiens) is 700 nM. As for `O=C(O)C(Cc1ccccc1)NC(=O)[C@H](Cc1ccc2c(c1)oc1ccccc12)NCP(=O)(O)O` (some centres undefined), the Activity in experiment [1] came out at 12 nM.

Turning to `C=CCN(CC(=O)OCC)C(=O)/C(C)=C/c1ccc(C(=O)Nc2ccc(C(=N)N)cc2)cc1`, the Activity in [2] came to 65 nM.

Compound `COc1ccc(NC(=O)NC2N=C(c3ccccc3)c3ccccc3N(C)C2=O)cc1` (centres undefined) came in with an Activity in experiment [3] of 165 nM. In the case of `C[C@@]12Cc3cnn(-c4ccc(F)cc4)c3C=C1CC[C@H]1C2=CC[C@H](C(F)(F)F)[C@H]1NCc1ccc(F)cc1`, in experiment [4], the Activity stood at 3 nM. `N[C@@H](C(=O)O)[C@H]1[C@H](CNC(=O)Nc2ccccc2)[C@H]1C(=O)O` gave an Activity in experiment [5] of 530 nM.

On to `Fc1ccc(CNc2nccc(-c3c(-c4ccc(F)cc4)nc4occn34)n2)cc1`, for which the Activity in experiment [6] was determined as 90.9 nM. In the case of `CC(C)=CCCN1CCC(NC(=O)[C@@](O)(c2ccccc2)[C@H]2CCC(NC(=O)OCc3ccccc3)C2)CC1` (some centres undefined), in experiment [7], the Activity was found to be 5.2 nM. The compound `CCc1cc(-c2ccn[nH]2)c(O)cc1OCCCOc1ccc(CC(=O)O)cc1` returned an Activity in experiment [2] of 54 nM.

As to `COc1ccc(NC(=O)C(CS)Cc2ccccc2)cc1` (centres undefined), in experiment [1], the Activity was found to be 26 nM. As for `CC(C)(C)OC(=O)NC(C(=O)N1CCC[C@H]1C(=O)NCC1CCC(N)CC1)c1ccccc1` (some centres undefined), in experiment [8], the Activity was found to be 6.8 nM. The compound `O=C(C[C@H](CCCc1ccc(Cl)cc1)C(=O)N[C@@H](CC1CCCCC1)C(=O)NCCc1ccccc1)NO` came in with an Activity in [9] of 7.31 nM.

With `O=C(CCC(NS(=O)(=O)c1ccc2oc3ccccc3c2c1)C(=O)O)NCCc1ccccc1` (centres undefined), the Activity in [9] was determined as 325 nM. On to `O=C(Nc1ccccc1)NC1CC(C(=O)O)Nc2cc(Cl)cc(Cl)c21` (centres undefined), for which the Activity in [10] turned out to be 2 nM. Consider `CCCC1(C(=O)Nc2cccc(F)c2)CCc2c(c3ccccc3n2CC(=O)O)C1` (centres undefined), for which, in [11], the Activity came to 22 nM. `CC(C)CC[C@@H](O)C(CC1CCCCC1)NC(=O)C(C)NC(=O)C(Cc1ccccc1)NC(=O)OC(C)(C)C` (some centres undefined) registered an Activity at Renin (Homo sapiens) of 200 nM.

Consider `CCOC(=O)CN(c1cc(C)cc(OCCc2ccc(C(=N)N)cc2)c1)S(=O)(=O)c1ccccc1Cl`, for which, in experiment [8], the Activity came to 300 nM. In the case of `O=C(Nc1ncc([N+](=O)[O-])s1)C(c1ccccc1)c1ccccc1`, the Activity in experiment [12] was determined as 250 nM.

As for `Cc1cccc(C[C@@H](NC(=O)C(c2ccccc2)c2ccccc2)C(=O)N[C@@H](C#N)COCc2ccccc2)c1`, the Activity in experiment [13] is 10.2 nM.

As for `CC(C)(C)OC(=O)N[C@@H](Cc1ccccc1)C(=O)N1CCN(C(c2ccc(F)cc2)c2ccc(F)cc2)CC1`, the Activity in experiment [12] stood at 250 nM. `CN1CC[C@H](c2ccc(Cl)cc2)[C@H](CSCC(=O)NCCc2ccccc2)C1` gave an Activity in experiment [14] of 23 nM. `Cn1c(C(=O)Nc2ccccc2C(=O)NC(Cc2ccccc2)C(=O)O)cc2ccccc21` (centres undefined): the Activity in [3] came out at 350 nM. As for `O=C(O)Cc1nn(CC(=O)Nc2cccc(F)c2)c(=O)c2ccccc12`, in experiment [15], the Activity was 22 nM. `COC(=O)N[C@H](C(=O)N(C)[C@@H](CN1CCCC1)c1ccccc1)c1ccccc1` showed an Activity in [16] of 178 nM.
